Laboratory results reported in publication PMC12516379, “Rotamer-Controlled Self-Immolative Linkers Enable Tunable Release of Neurosteroid Oxime Prodrugs” (ACS Medicinal Chemistry Letters, 2025).

Tests used:
[1] = Plasma stability assay at 37 °C via LC-MS/MS, human plasma; assay type: in vitro ADME; settings: for half-life at 3 µM: human, plasma;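 as to all read-outs here: prodrugs at 3 µM incubated in human plasma at 37 °C, intact prodrug quantified by LC-MS/MS over time, values are means of duplicate runs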
Description: (§12) To address this, prodrug stability was further evaluated in human plasma at 37 °C using liquid chromatography–tandem mass spectrometry (LC-MS/MS). For direct comparison, a parallel screen was conducted in PBS under identical conditions (Table ). To prevent premature degradation prior to LC-MS/MS analysis, acetonitrile containing formic acid was used as a quenching solution to acidify and stabilize the prodrugs in vials. […] This limitation in detection, along with the need for a more uniform and broadly applicable assessment across all compounds, prompted us to monitor the formation of the parent oxime as an alternative readout.
(§13) Stability experiments in human plasma and PBS were performed via liquid chromatography-tandem mass spectrometry (LC-MS/MS) to determine and compare rate of cleavage of progesterone prodrugs as well as selected allopregnanolone prodrugs (3 µM) when incubated at 37 °C. All experiments were performed in duplicate and results are presented as the average of two experimental replicates.

[2] = PBS stability assay at 37 °C via LC-MS/MS; assay type: physicochemical; settings: for half-life at 3 µM / remaining at 2 h, 3 µM: phosphate-buffered saline (DPBS); for half-life at 3 µM: pH 7.03, PBS; for PBS, 37 °C %rem. at 2h (Table S23) / half-life at 3 µM / remaining at 2 h, 3 µM: 37 °C; for remaining at 2 h, 3 µM: pH 7.03, read-out: % Remaining @ 2h, PBS, 37 °C (Tables S25, S26)
Description: as §12, §13

[3] = Stability in PBS at room temperature via HPLC (UV); assay type: physicochemical; settings: phosphate-buffered saline (DPBS)
Description: (§1) Stability studies were conducted in PBS and acetate buffer utilizing high performance liquid chromatography for potential drug storage considerations. […]
(§2) All experiments were performed in duplicate and results are presented as the average of two experimental replicates.
(§3) 1.1 Aqueous Stability in PBS and Acetate Buffer via HPLC
(§4) Material and Instrumentation
(§5) HPLC grade acetonitrile (MeCN) […] HPLC grade water (H 2O), and formic acid (FA) were purchased from Fisher Scientific.
(§6) Puradisc 4 mm PTFE (0.45 μm) syringe filters from Cytiva. Gibco ® Dulbecco’s phosphate-buffered saline (DPBS 1X, no calcium, no magnesium, pH = 7.03) and acetate buffer (pH = 5.0, 10 mM) were purchased directly from Thermo Fisher Scientific and Cytiva, respectively.
(§7) Aqueous stability experiments were performed on an Agilent 1100 HPLC equipped with an Agilent G1315B diode array detector, an Agilent G1316A heated column compartment, and a Zorbax Eclipse XDB-C18 (4.6 x 150 mm, 5 μm) column.
(§8) Procedure for Aqueous Stability Experiments
(§9) Each sample was first weighed out in two separate 2.0 mL vials using an analytical balance.
(§10) Unless otherwise specified, the test compounds were then dissolved in the aqueous media (PBS or acetate buffer) at a standard concentration of 1 mg/mL. All mixtures were subsequently sonicated for approximately 30 sec. […]
(§11) min), precipitates observed in sample solutions were filtered with a PTFE syringe filter prior to analysis. Immediately after sample preparation, injection by the HPLC autosampler was performed, which was recorded as the initial time point (t = 0 min). Solutions were then kept in the autosampler at RT and reinjected at designated intervals without additional filtration or sample modification. Remaining prodrug was defined by the area under the curve (AUC) at 254 nm. Aqueous stability was ascertained by calculating the percentage of the parent compound remaining after each time point. Linear regression of the time (x-axis) vs. ln(%remaining) (y-axis) plot afforded the rate constant k (slope = -k). Pseudo first-order half-lives were then calculated by the following equation: t1/2 = 0.693/k.

[4] = Aqueous solubility by visual inspection in acetate buffer (pH 5); settings: sodium acetate buffer
Description: For the solubility assessment, acetate buffer (pH 5) was selected as the media of choice to ensure prodrug stability during analysis.
High aqueous solubility was determined by visual inspection of 5 mg solid material in 0.5 mL
sodium acetate buffer solution. This media was selected to ensure stability of prodrugs during
dissolution in 50 mg/mL aqueous media.

[5] = Stability in acetate buffer pH 5.0 at room temperature via HPLC (UV); assay type: physicochemical
Description: as §1, §2, §3, §4, §5, §6, §7, §8, §9, §10, §11

[6] = 3 µM, LC-MS/MS, read-out: t1/2 in human plasma at 37 °C (Tables S10-S13, S18) (converted)
[7] = LC-MS/MS, read-out: Half-life (t½) Plasma 37°C (converted)
[8] = read-out: Plasma, 37 °C t½ (Table S23) (converted)
[9] = 3 µM, LC-MS/MS, read-out: t1/2 in PBS at 37 °C (Tables S14-S17) (converted)
[10] = LC-MS/MS, read-out: Half-life (t½) PBS 37°C (converted)
[11] = read-out: PBS, 37 °C t½ (Table S23) (converted)
[12] = read-out: t1/2 (h) PBS, 37 °C (Tables S25, S26) (converted)
[13] = pH 7.03, DPBS pH 7.03, RT, 1 mg/mL, HPLC 254 nm, read-out: t1/2 in PBS buffer at RT (Tables S1-S4) (converted)
[14] = pH 7.03, PBS, rt, HPLC (UV), read-out: Half-life (t½) PBS rt (converted)
[15] = pH 7.03, PBS, rt, read-out: t½: PBS, rt (Table S23) (converted)
[16] = pH 5, aqueous buffer, thermodynamic from solid
[17] = pH 5, acetate buffer pH 5.0, RT, 1 mg/mL, HPLC 254 nm, read-out: t1/2 in acetate buffer at RT (Tables S5-S8) (converted)
[18] = pH 5, acetate buffer pH 5.0, rt, HPLC (UV), read-out: Half-life (t½) pH 5.0 rt (converted)
[19] = pH 5, acetate buffer pH 5.0, rt, read-out: t½: pH 5.0, rt (Table S23) (converted)

Row | Structure (SMILES) | Plasma, 37 °C %rem. at 2h (Table S23) [1] [%] | half-life at 3 µM [1, 6] [h] | half-life at 3 µM [1, 7] [h] | half-life at 3 µM [1, 8] [h] | PBS, 37 °C %rem. at 2h (Table S23) ([2]; PBS) [%] | half-life at 3 µM [2, 9] [h] | half-life at 3 µM [2, 10] [h] | half-life at 3 µM [2, 11] [h] | half-life at 3 µM [2, 12] [h] | remaining at 2 h, 3 µM ([2]; PBS) [%] | half-life at 1 mg/mL [3, 13] [h] | half-life at 1 mg/mL [3, 14] [h] | half-life at 1 mg/mL [3, 15] [h] | solubility [4, 16] [µg/mL] | half-life at 1 mg/mL [5, 17] [h] | half-life at 1 mg/mL [5, 18] [h] | half-life at 1 mg/mL [5, 19] [h] | Prodrug stability / self-immolation in buffer, in words ([2]; PBS) | solubility ([4]; pH 5) [µg/mL] | half-life at 1 mg/mL ([5]; pH 5, acetate buffer pH 5.0, RT, HPLC 254 nm, read-out: t1/2 in acetate buffer at RT) [h]
1 | CNCCN(C(=O)O/N=C(\C)[C@H]1CC[C@H]2[C@@H]3CCC4=CC(=O)CC[C@]4(C)[C@H]3CC[C@]12C)C(C)C.O=C(O)C(F)(F)F [20c] | 47 | 1.59 | 1.59 | 1.59 | 53 | 3.27 | 3.27 | 3.27 | 3.27 | 53 | 19.7 ± 0.38 | 19.7 | 19.7 | > 10000 | > 168 | > 168 | > 168 |  |  | 
2 | C/C(=N\OC(=O)N(C)C[C@H]1CCCN1)[C@H]1CC[C@H]2[C@@H]3CCC4=CC(=O)CC[C@]4(C)[C@H]3CC[C@]12C.O=C(O)C(F)(F)F [20m] | 2 | 0.35 |  | 0.35 | 11 | 0.8 |  | 0.8 |  |  | 6.15 ± 0.02 |  | 6.15 | > 10000 | > 168 |  | > 168 |  |  | 
3 | C/C(=N\OC(=O)N(CCN(C)C)CCN(C)C)[C@H]1CC[C@H]2[C@@H]3CCC4=CC(=O)CC[C@]4(C)[C@H]3CC[C@]12C [20y] | 84 | 8.88 |  | 8.88 | 35 | 1.87 |  | 1.87 |  |  | 0.017 ± 0.002 |  | 0.02 |  |  |  |  | hydrolytic instability | < 10000 | 0.1322 ± 0.00117
4 | CNCCN(CCn1ccnc1)C(=O)O/N=C(\C)[C@H]1CC[C@H]2[C@@H]3CCC4=CC(=O)CC[C@]4(C)[C@H]3CC[C@]12C [20k] | 68 | 3.16 |  | 3.16 | 70 | 5.99 |  | 5.99 | 5.99 | 70 | 47 ± 2.84 |  | 47 | > 10000 | > 168 |  | > 168 |  |  | 
5 | CNCCN(C(=O)O/N=C(\C)[C@H]1CC[C@H]2[C@@H]3CCC4=CC(=O)CC[C@]4(C)[C@H]3CC[C@]12C)C1CCCC1.O=C(O)C(F)(F)F [20e] | 76 | 4.02 | 3.09 | 4.02 | 34 | 1.74 | 1.74 | 1.74 | 1.74 | 34 | 10.7 ± 0.15 | 10.7 | 10.7 | > 10000 | > 168 | > 168 | > 168 |  |  | 
6 | CNCCN(CCCN1CCOCC1)C(=O)O/N=C(\C)[C@H]1CC[C@H]2[C@@H]3CCC4=CC(=O)CC[C@]4(C)[C@H]3CC[C@]12C.O=C(O)C(F)(F)F [20i] | 57 | 2.09 |  | 2.09 | 77 | 5.45 |  | 5.45 | 5.45 | 77 | 31.2 ± 1.48 |  | 31.2 | > 10000 | > 168 |  | > 168 |  |  | 
7 | CNCCN(C(=O)O/N=C(\C)[C@H]1CC[C@H]2[C@@H]3CCC4=CC(=O)CC[C@]4(C)[C@H]3CC[C@]12C)C1CCC1.O=C(O)C(F)(F)F [20d] | 59 | 2.67 | 2.67 | 2.67 | 44 | 2.32 | 2.32 | 2.32 | 2.32 | 44 | 11.8 ± 0.51 | 11.8 | 11.8 | > 10000 | > 168 | > 168 | > 168 |  |  | 
8 | C/C(=N\OC(=O)N(C)C[C@@H]1C[C@H](N(C)C)CN1)[C@H]1CC[C@H]2[C@@H]3CCC4=CC(=O)CC[C@]4(C)[C@H]3CC[C@]12C [20u] | 17 | 0.74 | 0.73 | 0.74 |  | 1.08 | 1.08 | 1.08 |  |  | 7.53 ± 1.3 | 7.53 | 7.53 | > 10000 | 72 | 72 | 72 |  |  | 
9 | CNCCN(CC(C)C)C(=O)O/N=C(\C)[C@H]1CC[C@H]2[C@@H]3CCC4=CC(=O)CC[C@]4(C)[C@H]3CC[C@]12C.O=C(O)C(F)(F)F [20f] | 95 | 4.78 |  | 4.78 | 55 | 5.07 |  | 5.07 | 5.07 | 55 | 50.7 ± 5.11 |  | > 24 | > 10000 | > 168 |  | > 168 |  |  | 
